Data taken from PMC12638379, “An innovative approach to development of new pyrazolylquinolin-2-one hybrids as dual EGFR and BRAF^V600E inhibitors” (Molecular Diversity, 2025).
Like-named read-outs stand apart in the source and are kept apart here.

Test system: NCI 60 cancer cell lines
Experiment: NCI anticancer screening over a panel of 60 cancer cells, single concentration 10 µM
Assay type: cell-based, human
Settings: Homo sapiens, read-out: Growth inhibition (GI %)
Experimental: Ten final compounds 4a–j and five intermediates 2a–e have been selected by the National Cancer Institute (NCI) for anticancer screening over a panel of 60 cancer cells that cover a variety of histological tissues, including the central nervous system, leukemia, lung, colon, kidney, ovary, breast, and prostate, using the protocol established by the National Cancer Institute (NCI). In a primary screening, each compound was screened at a concentration of 10 µM.
Compounds 2a-e and 4a-j were selected by the National Cancer Institute (NCI) according to the protocol of the Compound Evaluation Branch of the National Cancer Institute, Bethesda, USA, for in vitro anticancer screening which refers in turn to apoptotic activity. The methodology of the NCI anticancer screening has been described in detail elsewhere (http://www.dtp.nci.nih.gov).

In the case of `CC(=O)c1cnn(-c2cc(=O)[nH]c3ccc(C)cc23)c1C` [Compound 2b, 4-(4-Acetyl-5-methyl-1H-pyrazol-1-yl)-6-methylquinolin-2(1H)-one], the inhibition at 10 µM (786-0, Renal cancer 786-0, 10 μM) is reported as < 5%, the inhibition at 10 µM (A498, Renal cancer A498, 10 μM) is reported as < 5% and the inhibition at 10 µM (A549, Non-small cell lung cancer A549/ATCC, 10 μM) is reported as < 5%. For the same compound, the inhibition at 10 µM (ACHN, Renal cancer ACHN, 10 μM) was < 5%, the inhibition at 10 µM (BT-549, Breast cancer BT-549, 10 μM) was < 5% and the inhibition at 10 µM (CAKI-1, Renal cancer CAKI-1, 10 μM) was 8.89%. For the same compound, the inhibition at 10 µM (CCRF-CEM, Leukemia CCRF-CEM, 10 μM) was < 5%, the inhibition at 10 µM (COLO 205, Colon cancer COLO 205, 10 μM) was < 5% and the inhibition at 10 µM (DU-145, Prostate cancer DU-145, 10 μM) was < 5%. For the same compound, the inhibition at 10 µM (EKVX, Non-small cell lung cancer EKVX, 10 μM) was < 5%, the inhibition at 10 µM (HCC 2998, Colon cancer HCC-2998, 10 μM) was < 5% and the inhibition at 10 µM (HCT-15, Colon cancer HCT-15, 10 μM) was < 5%. The inhibition at 10 µM (HCT-116, Colon cancer HCT-116, 10 μM) was < 5%, the inhibition at 10 µM (HL-60, Leukemia HL-60(TB), 10 μM) was 19% and the inhibition at 10 µM (HOP-62, Non-small cell lung cancer HOP-62, 10 μM) was 6.93%. For the same compound, the inhibition at 10 µM (HOP-92, Non-small cell lung cancer HOP-92, 10 μM) was < 5%, the inhibition at 10 µM (HT-29, Colon cancer HT29, 10 μM) was < 5% and the inhibition at 10 µM (Hs-578T, Breast cancer HS 578T, 10 μM) was < 5%. The inhibition at 10 µM (IGROV-1, Ovarian cancer IGROV1, 10 μM) was < 5%, the inhibition at 10 µM (K562, Leukemia K-562, 10 μM) was < 5% and the inhibition at 10 µM (KM12, Colon cancer KM12, 10 μM) was < 5%. For the same compound, the inhibition at 10 µM (LOX IMVI, Melanoma LOX IMVI, 10 μM) was 5.38%, the inhibition at 10 µM (Leukemia SR, 10 μM) was < 5% and the inhibition at 10 µM (MDA-MB-231, Breast Cancer MDA-MB 231/ATCC, 10 μM) was < 5%. For the same compound, the inhibition at 10 µM (MDA-MB-435, Melanoma MDA-MB-435, 10 μM) was < 5%, the inhibition at 10 µM (MDA-MB-468, Breast cancer MDA-MB-468, 10 μM) was < 5% and the inhibition at 10 µM (MOLT-4, Leukemia MOLT-4, 10 μM) was < 5%. For the same compound, the inhibition at 10 µM (Malme-3M, Melanoma MALME-3M, 10 μM) was < 5%, the inhibition at 10 µM (Melanoma M14, 10 μM) was < 5% and the inhibition at 10 µM (NCI-H23, Non-small cell lung cancer NCI-H23, 10 μM) was < 5%. For the same compound, the inhibition at 10 µM (NCI-H226, Non-small cell lung cancer NCI-H226, 10 μM) was < 5%, the inhibition at 10 µM (NCI-H322M, Non-small cell lung cancer NCI-H322M, 10 μM) was < 5% and the inhibition at 10 µM (NCI-H460, Non-small cell lung cancer NCI-H460, 10 μM) was < 5%. For the same compound, the inhibition at 10 µM (NCI-H522, Non-small cell lung cancer NCI-H522, 10 μM) was 6.79%, the inhibition at 10 µM (NCI/ADR-RES, Ovarian cancer NCI/ADR-RES, 10 μM) was < 5% and the inhibition at 10 µM (OVCAR-3, Ovarian cancer OVCAR-3, 10 μM) was < 5%. The inhibition at 10 µM (OVCAR-4, Ovarian cancer OVCAR-4, 10 μM) was < 5%, the inhibition at 10 µM (OVCAR-5, Ovarian cancer OVCAR-5, 10 μM) was < 5% and the inhibition at 10 µM (OVCAR-8, Ovarian cancer OVCAR-8, 10 μM) was < 5%. The inhibition at 10 µM (Prostate cancer PC-3, 10 μM) was 4.29%, the inhibition at 10 µM (RPMI-8226, Leukemia RPMI-8226, 10 μM) was < 5% and the inhibition at 10 µM (RXF 393, Renal cancer RXF 393, 10 μM) was < 5%. For the same compound, the inhibition at 10 µM (SF-268, CNS Cancer SF-268, 10 μM) was < 5%, the inhibition at 10 µM (SF-295, CNS Cancer SF-295, 10 μM) was < 5% and the inhibition at 10 µM (SF-539, CNS Cancer SF-539, 10 μM) was < 5%. The inhibition at 10 µM (SK-MEL-2, Melanoma SK-MEL-2, 10 μM) was < 5%, the inhibition at 10 µM (SK-MEL-5, Melanoma SK-MEL-5, 10 μM) was < 5% and the inhibition at 10 µM (SK-MEL-28, Melanoma SK-MEL-28, 10 μM) was < 5%. For the same compound, the inhibition at 10 µM (SK-OV-3, Ovarian cancer SK-OV-3, 10 μM) was < 5%, the inhibition at 10 µM (SN12C, Renal cancer SN12C, 10 μM) was < 5% and the inhibition at 10 µM (SNB-19, CNS Cancer SNB-19, 10 μM) was < 5%. For the same compound, the inhibition at 10 µM (SNB-75, CNS Cancer SNB-75, 10 μM) was < 5%, the inhibition at 10 µM (SW-620, Colon cancer SW-620, 10 μM) was < 5% and the inhibition at 10 µM (T47D, Breast cancer T-47D, 10 μM) was 6.75%. The inhibition at 10 µM (TK-10, Renal cancer TK-10, 10 μM) was < 5%, the inhibition at 10 µM (U-251, CNS Cancer U251, 10 μM) was 5.31% and the inhibition at 10 µM (UACC-62, Melanoma UACC-62, 10 μM) was < 5%. The inhibition at 10 µM (UACC-257, Melanoma UACC-257, 10 μM) was < 5% and the inhibition at 10 µM (UO-31, Renal cancer UO-31, 10 μM) was 19%.
